Test results as given in ChEMBL document CHEMBL5052820, “Organic compounds” (2019).
Where a SMILES comes first, the peptide text is derived from it.

Assay: Activation of mouse GPR15 stably expressed in CHO cells expressing Aequorin and Galpha16 measured by luminiscence assay
Format: cell-based

Compound: CC(C)C[C@H](NC(=O)[C@H](CCC(N)=O)NC(=O)[C@@H]1CCCN1C(=O)[C@H](CCCCN)NC(=O)[C@@H](N)CCC(N)=O)C(=O)N[C@@H](Cc1c[nH]c2ccccc12)C(=O)N[C@H](C(=O)N[C@H](C(=O)N1CCC[C@H]1C(=O)NCC(=O)N[C@@H](C)C(=O)N[C@@H](CC(C)C)C(=O)N1CCC[C@H]1C(=O)N[C@@H](CCC(N)=O)C(=O)N[C@H](C(=O)O)C(C)C)C(C)C)C(C)C (H-QKPQLWVVPGALPQV-OH)
- EC50: 4.02 µM
